{
  "source": "patent US20200055891A1",
  "about": "“NOVEL PHOSPHOTRIAZOLE MRNA 5'-END CAP ANALOGS, COMPOSITION COMPRISING THE SAME, RNA MOLECULE INCORPORATING THE SAME, USES THEREOF AND METHOD OF SYNTHESIZING RNA MOLECULE, PROTEIN OR PEPTIDE” (UNIWERSYTET WARSZAWSKI, priority 2016, published 2020)",
  "key": {"SP6 RNA polymerase": {"molecular_target": "T1, SP6 RNA polymerase (Enterobacteria phage SP6, UniProt P06221)", "T1 construct": "purchased New England BioLabs", "T1 sequence (P06221 1-874)": "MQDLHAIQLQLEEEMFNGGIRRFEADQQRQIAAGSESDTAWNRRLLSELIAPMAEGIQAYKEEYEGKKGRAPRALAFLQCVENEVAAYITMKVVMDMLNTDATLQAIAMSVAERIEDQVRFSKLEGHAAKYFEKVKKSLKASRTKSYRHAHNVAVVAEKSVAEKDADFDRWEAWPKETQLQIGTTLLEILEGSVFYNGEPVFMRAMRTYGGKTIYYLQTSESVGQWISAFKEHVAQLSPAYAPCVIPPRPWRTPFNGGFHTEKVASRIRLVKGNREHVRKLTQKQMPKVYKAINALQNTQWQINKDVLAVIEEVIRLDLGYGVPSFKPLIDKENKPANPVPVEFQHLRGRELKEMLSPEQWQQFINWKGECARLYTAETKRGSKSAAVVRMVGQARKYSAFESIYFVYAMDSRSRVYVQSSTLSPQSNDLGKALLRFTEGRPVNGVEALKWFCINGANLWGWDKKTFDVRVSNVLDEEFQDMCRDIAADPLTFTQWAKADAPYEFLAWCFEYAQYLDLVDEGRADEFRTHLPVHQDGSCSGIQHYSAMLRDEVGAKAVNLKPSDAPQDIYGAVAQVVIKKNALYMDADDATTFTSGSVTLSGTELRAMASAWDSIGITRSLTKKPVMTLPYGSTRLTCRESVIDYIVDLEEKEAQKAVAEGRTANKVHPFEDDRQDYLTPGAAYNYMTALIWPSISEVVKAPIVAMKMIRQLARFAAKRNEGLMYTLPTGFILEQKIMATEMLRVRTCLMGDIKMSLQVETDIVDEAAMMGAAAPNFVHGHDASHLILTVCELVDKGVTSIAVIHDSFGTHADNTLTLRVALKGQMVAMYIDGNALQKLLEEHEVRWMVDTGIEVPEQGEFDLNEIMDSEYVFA", "assay": "Capping efficiency: incorporation of cap analogues at the 5′ end of short transcripts by in vitro transcription", "assay_type": "biochemical", "details": "1.25 mM cap analogue, 0.125 mM GTP", "procedure": "Prior to in vitro transcription annealing of a template was performed. DNA1 (SEQ ID NO: 1) and DNA2 (SEQ ID NO: 2) (20 μM each) were incubated in the presence of 4 mM Tris-HCl pH 8.0, 15 mM NaCl and 0.1 mM EDTA at 95° C. for 2 min and then at room temperature for 30 min. After 10-fold dilution the mixture was directly used for in vitro transcription.\nThe reaction was quenched by addition of 2 μl of 0.5 M EDTA pH 8.0 and purified with RNA Clean&Concentrator-5 kit (Zymo Research) to afford capped RNA1 (SEQ ID NO: 4) strands.\nTo reduce heterogeneity, each capped RNA1 (11.42 ng/μl, ca. 1 μM) was incubated in presence of 50 mM Tris-HCl pH 8.0, 50 mM MgCl2, RiboLock RNase Inhibitor (ThermoFisher Scientific) (2.0 U/μl) and DNA3 (SEQ ID NO: 3) (1 μM) at 37° C. for 1 h to afford RNA2 (SEQ ID NO: 5).^44 The reaction was stopped by freezing in liquid nitrogen and directly analyzed by PAGE (FIG. 3).\nRelative bands intensity was determined using CLIQS v1.0 program."}, "[1]": {"tested_on": "Rabbit Reticulocyte Lysate", "assay": "Translation efficiency of capped firefly luciferase mRNA in Rabbit Reticulocyte Lysate System", "assay_type": "biochemical", "details": "relative, m^7GpppG = 1", "procedure": "The reaction was quenched by addition of 2 μl of 0.5 M EDTA pH 8.0 and purified with NucleoSpin RNA Clean-up XS kit (Macherey-Nagel) to afford luciferase-coding RNA strands capped with appropriate cap analogue.\nFor each capped luciferase-coding RNA four diluted solutions were prepared—3.0 ng/μl, 1.5 ng/μl, 0.75 ng/μl, 0.375 ng/μl. Translation studies were performed using Rabbit Reticulocyte Lysate System (Promega). 9 μl of a mixture containing Rabbit Reticulocyte Lysate (4 μl), Amino Acid Mixture Minus Leucine (0.05 μl of 1 mM solution), Amino Acid Mixture Minus Methionine (0.05 μl of 1 mM solution), potassium acetate (1.9 μl of 1 M solution), MgCl2 (0.4 μl of 25 mM solution) and 2.1 μl of water was incubated at 30° C. for 1 h after which 1 μl of appropriate luciferase-coding RNA solution was added and incubation of the reaction was continued at 37° C. for another hour. The reaction was stopped by freezing in liquid nitrogen.\nTranslation efficiency was determined using Luciferase Reporter System (Promega). The samples were defrosted just before the experiment. To every sample 50 μl of Luciferase Assay Reagent was added just before measurement of luminescence on Synergy H1 Microplate Reader (Bio Tek). The measurement were performed for every four samples independently due to low stability of luminescence signal. The results are presented on. FIG. 4 as proportions between regression coefficients of linear relationships between capped luciferase-coding RNA concentration in translation reaction (300 pg/μl, 150 pg/μl, 75 pg/μl, 37.5 pg/μl) and corresponding luminescence signal."}, "eIF4E [2]": {"molecular_target": "T2, eIF4E (Mus musculus, UniProt P63073)", "T2 sequence (P63073 28-217 limits assumed)": "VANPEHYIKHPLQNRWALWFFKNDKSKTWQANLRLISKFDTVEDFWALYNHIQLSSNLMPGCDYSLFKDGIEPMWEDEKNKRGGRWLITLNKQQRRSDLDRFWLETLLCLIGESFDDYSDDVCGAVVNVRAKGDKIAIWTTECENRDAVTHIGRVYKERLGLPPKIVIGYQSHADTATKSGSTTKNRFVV", "details": "reference cap analogues, values from refs 42/43; cited from earlier work"}, "eIF4E [3]": {"molecular_target": "T2, eIF4E", "assay": "Association constants (KAS) of cap analogue-eIF4E complexes, fluorescence quenching titration", "assay_type": "binding", "details": "20° C., 50 mM Hepes/KOH pH 7.20, 100 mM KCl; weighted average of triplicate", "procedure": "Association constants for cap analogue-eIF4E complexes were determined using fluorescence quenching titration method as described previously.^42 Measurements were performed using a quartz cuvette with optical path length of 4 mm for absorption and 10 mm for emission on LS-50B spectrofluorometer Perkin-Elmer Co. (Waltham, Mass., USA). Titration experiments were carried out at 20° C. in 50 mM Hepes/KOH buffer, pH 7.20 containing 100 mM KCl, 0.5 mM EDTA, and 1 mM DTT. During the experiment 1 μl aliquots of ligand solution was added to the 1400 μl of 0.1 μM protein solution. Protein fluorescence was monitored at 337 or 345 nm (excitation 280 or 295 nm, respectively). For data analysis fluorescence intensity correction was applied for sample dilution and inner filter effect. Association constants were determined by fitting theoretical dependence of fluorescence intensity on total ligand concentration. Each experiment was performed in triplicate, the association constants were calculated as weighted averages."}, "[4]": {"assay": "Hydrolysis in D2O seen in NMR spectra", "assay_type": "physicochemical", "details": "dissolved in D2O just before NMR measurement; given if higher than 5%", "procedure": "Some cap analogues hydrolyzed in D2O gradually. Although pure compounds (see HPLC profiles, Supporting Information 2) were dissolved in D2O just before measurements, the spectra indicated some level of hydrolysis. % of hydrolysis is provided along with compound characterization data, if higher than 5%."}},
  "note": "Read-outs that look alike come from different tables or passages of the source.",
  "data": [
    {"compound": "CO[C@H]1[C@@H](O)[C@H]([n+]2cn(C)c3c(=O)[nH]c(N)nc32)O[C@@H]1COP(=O)([O-])OP(=O)(O)OP(=O)(O)OC[C@H]1O[C@@H](n2cnc3c(=O)[nH]c(N)nc32)[C@H](O)[C@@H]1O", "note": "[m2^7,3′-OGpppG, reference compound]", "values": [
      {"measurement": "Capping efficiency", "setting": "SP6 RNA polymerase", "value": 83, "unit": "%"},
      {"measurement": "Translation efficiency", "setting": "[1]", "value": "1.526 ± 0.043"},
      {"measurement": "KAS", "setting": "eIF4E [2]", "value": "10.2 ± 0.6^43 μM^−1"}
    ]},
    {"compound": "Cn1c[n+]([C@@H]2O[C@H](COP(=O)(O)OP(=O)([O-])O)[C@@H](O)[C@H]2O)c2nc(N)[nH]c(=O)c21", "note": "[m^7GDP]", "values": [
      {"measurement": "KAS", "setting": "eIF4E [2]", "value": "20.4 ± 1.5^42 μM^−1"}
    ]},
    {"compound": "C[n+]1cn([C@@H]2O[C@H](COP(=O)(O)OP(=O)(O)OP(=O)([O-])c3cn(CCNP(=O)(O)OC[C@H]4O[C@@H](n5cnc6c(=O)[nH]c(N)nc65)C(O)C4O)nn3)C(O)C2O)c2nc(N)[nH]c(=O)c21", "note": "(stereo partly shown) [m^7GppptC2H4NHpG, m^7Gppp-triazole-C2H4NHpG]", "values": [
      {"measurement": "KAS", "setting": "eIF4E [3]", "value": "21.94 ± 0.69", "unit": "µM⁻¹"},
      {"measurement": "Capping efficiency", "setting": "SP6 RNA polymerase", "value": 52, "unit": "%"},
      {"measurement": "Translation efficiency", "setting": "[1]", "value": "0.89 ± 0.11"},
      {"measurement": "hydrolysis in D2O", "setting": "[4]", "value": 13, "unit": "%"}
    ]},
    {"compound": "C[n+]1cn([C@@H]2O[C@H](COP(=O)([O-])OP(=O)(O)NCCn3cc(CCP(=O)(O)OP(=O)(O)OC[C@H]4O[C@@H](n5cnc6c(=O)[nH]c(N)nc65)[C@@H](O)C4O)nn3)C(O)[C@@H]2O)c2nc(N)[nH]c(=O)c21", "note": "(stereo partly shown) [m^7GppNHC2H4tC2H4ppG, m^7GppNHC2H4-triazole-C2H4ppG]", "values": [
      {"measurement": "Capping efficiency", "setting": "SP6 RNA polymerase", "value": 30, "unit": "%"},
      {"measurement": "Translation efficiency", "setting": "[1]", "value": "0.239 ± 0.028"},
      {"measurement": "hydrolysis in D2O", "setting": "[4]", "value": 11, "unit": "%"}
    ]},
    {"compound": "Cn1c[n+]([C@@H]2O[C@H](COP(=O)(O)OP(=O)([O-])OP(=O)(O)OC[C@H]3O[C@@H](n4cnc5c(=O)[nH]c(N)nc54)[C@H](O)[C@@H]3O)[C@@H](O)[C@H]2O)c2nc(N)[nH]c(=O)c21", "note": "[m^7GpppG, reference compound]", "values": [
      {"measurement": "Capping efficiency", "setting": "SP6 RNA polymerase", "value": 90, "unit": "%"},
      {"measurement": "Translation efficiency", "setting": "[1]", "value": 1},
      {"measurement": "KAS", "setting": "eIF4E [2]", "value": "12.5 ± 0.3^43 μM^−1"}
    ]},
    {"compound": "C[n+]1cn([C@@H]2O[C@H](COP(=O)(O)NCCn3cc(P(=O)([O-])OP(=O)(O)OP(=O)(O)OC[C@H]4O[C@@H](n5cnc6c(=O)[nH]c(N)nc65)C(O)C4O)nn3)C(O)C2O)c2nc(N)[nH]c(=O)c21", "note": "(stereo partly shown) [m^7GpNHC2H4tpppG, m^7GpNHC2H4-triazole-pppG]", "values": [
      {"measurement": "KAS", "setting": "eIF4E [3]", "value": "3.10 ± 0.18", "unit": "µM⁻¹"},
      {"measurement": "Capping efficiency", "setting": "SP6 RNA polymerase", "value": 57, "unit": "%"},
      {"measurement": "Translation efficiency", "setting": "[1]", "value": "0.103 ± 0.027"},
      {"measurement": "hydrolysis in D2O", "setting": "[4]", "value": 9, "unit": "%"}
    ]},
    {"compound": "C[n+]1cn([C@@H]2O[C@H](COP(=O)(O)OP(=O)([O-])OP(=O)(O)Cc3cn(CCNP(=O)(O)OC[C@H]4O[C@@H](n5cnc6c(=O)[nH]c(N)nc65)C(O)C4O)nn3)C(O)C2O)c2nc(N)[nH]c(=O)c21", "note": "(stereo partly shown) [m^7GpppCH2tC2H4NHpG, m^7GpppCH2-triazole-C2H4NHpG]", "values": [
      {"measurement": "KAS", "setting": "eIF4E [3]", "value": "18.21 ± 0.72", "unit": "µM⁻¹"},
      {"measurement": "Capping efficiency", "setting": "SP6 RNA polymerase", "value": 44, "unit": "%"},
      {"measurement": "Translation efficiency", "setting": "[1]", "value": "0.94 ± 0.11"},
      {"measurement": "hydrolysis in D2O", "setting": "[4]", "value": 9, "unit": "%"}
    ]}
  ]
}
